{"source": "patent US20020150990A1", "about": "“Hepatitis C virus peptides” (priority 1992, published 2002)", "key": {"antibodies against HCV [1]": {"tested_on": "antibodies against HCV", "assay": "PEPSCAN analysis of overlapping octameric peptides of the HCV core protein N-terminal region with HCV-seropositive sera", "type": "binding, human", "settings": "for Absorbance Units for different sera: read at 405 nm", "source_text": "The N-terminal 97 amino acid residues of HCV Core protein SEQ ID NO: 8 was mapped with PEPSCAN analysis. This process involved the serological analysis of sequentially overlapping peptides which spanned the region of interest, to identify epitopic domains. Ninety overlapping octameric peptides were synthesized on polypropylene pin supports according to the manufacturer's instructions (Cambridge Research Biochemicals), such that each peptide overlapped with the preceding sequence by the seven N-terminal residues, and with the subsequent peptide by the seven C-terminal residues. Serum or IgG purified from the serum of individuals confirmed to be seropositive for HCV were used to screen the peptides.\nThe assay procedure followed was performed basically as described in the manufacturers instruction manual. The time and temperature of the test antibody incubation differed from that prescribed, thereby decreasing the time taken for each assay.\nSera: A total of 16 sera were assayed by PEPSCAN. These consisted of 12 sera from paid U.S. Donors which were identified as being positive for antibodies against HCV in routine screening at the site of donation. The remaining four sera were from patients diagnosed as having non-A non-B hepatitis, and which were subsequently shown to contain antibodies to HCV. Sera were screened either as the crude serum fraction, or as a caprylic acid preparation. Caprylic acid purification of IgG from the sera was performed as described by Stienbuch and Audran (1969) Arch. Biochem. Biophys. 134, 279-284.\nAssay: The assay format involves sequentially incubating the various pins in microwell plates containing blocking, test antibody, conjugate, and substrate solutions. The immune complex builds up on the pin with the enzyme labelled conjugate being immobilized on the bound anti-peptide antibody from the test serum. When the pin is then immersed in substrate, the enzyme brings about the colour change which is used to quantify the amount of anti-peptide antibody bound.\nBlocking: Pins are immersed in 200 μl of Supercocktail (1% Ovalbumin, 1% bovine serum albumin in 0.15M phosphate buffered saline pH 7.2—0.1% Tween 20) and left to stand at room temperature for 1 hour.\nTest antibody: The test antibody is diluted between 1/200 (IgG) and 1/1000 (serum) in supercocktail. The pins are then stood in this solution (175 μl/well) at 37° C. for 1 hour. After this incubation the pins are washed four times in 0.15M phosphate buffered saline pH 7.2—0.05% Tween 20, each at room temperature for 10 minutes.\nConjugate: Rabbit anti-human IgG coupled to horseradish peroxidase is diluted 1/1000 in supercocktail. The peptide bearing pins are then stood in this solution at room temperature for 1 hour. Once again the pins are then washed four times as above.\nSubstrate: The substrate solution is made up fresh for each assay. To 100 ml of 0.1M phosphate, 0.08M citrate buffer pH 4.0 is dissolved 50 mg of 2,2′-AZINO-bis (3-ethylbenzthiazo-linsulphonic acid (ABTS) and 0.3 μl/ml 30% hydrogen peroxide is added. The pins are immersed in the wells containing substrate solution (150 μl/well) and incubated at room temperature in the dark. Once sufficient colour has developed the reaction is stopped by removing the pins. The plates are then read immediately in a spectrophotometric plate reader at a wavelength of 405 nm. The absorbance values are then plotted against pin number. The epitopic domains are then defined as the continuous sequence of amino acids common to all positive pins in the domain i.e."}, "antibodies against HCV [2]": {"tested_on": "antibodies against HCV", "assay": "Replacement Net analysis of the core immunodominant epitope YLLPRR with 12 paid donor human sera", "type": "binding", "settings": "n = 12 sera; for Frequency of relative signal strength: All: acceptable when signal 80% of the parent sequence or greater; for Frequency of relative signal strength: 2nd-5th / Frequency of relative signal strength: 6th-10th / Frequency of relative signal strength: Below 10th / Frequency of relative signal strength: Highest: rank of replacement residue at that position", "protocol": "The Replacement Net Method was used to sequentially replace each of the constituent amino acid residues in the epitope with each of the other genetically encoded amino acids.\nFor Replacement Net analysis, a parent sequence is entered into the Epitope Mapping Software provided by Cambridge Research Biochemicals, and a set of replacement peptides is generated. This process was performed for the six amino acid residue immunodominant core epitope of HCV. The peptides were synthesized on polypropylene pins as directed by the manufacturer (CRB). The Assay format was identical to that followed for PEPSCAN above.\nThe Replacement Net of the core immunodominant epitope sequence Tyr-Leu-Leu-Pro-Arg-Arg (YLLPRR) (SEQ ID NO: 1 and 2) with the 12 paid donor human sera as described above was considered.\nFor each position within the epitope, the frequency of each replacement residue as an acceptable replacement for the parent sequence is given. Replacement residues were deemed acceptable when the signal of the new peptide was 80% of the parent sequence or greater.\nThe residue in italics is the parent sequence."}, "[3]": {"settings": "listed as 2-Leucine L, epitope position 2-Leucine, residue L"}, "[4]": {"settings": "listed as 3-Leucine L, epitope position 3-Leucine, residue L"}, "[5]": {"settings": "listed as 5-Arginine R, epitope position 5-Arginine, residue R"}, "[6]": {"settings": "listed as 6-Arginine R, epitope position 6-Arginine, residue R"}}, "note": "Ends that are not written are not given here."}
{"substance": "YLLPRRGP (pin support) [Tyr-Leu-Leu-Pro-Arg-Arg-Gly-Pro, overlapping octameric peptide of HCV core protein on pin support]", "values": [{"measurement": "Absorbance Units for different sera", "setting": "antibodies against HCV [1]; serum 65221", "value": 332, "unit": "Absorbance Units"}, {"measurement": "Absorbance Units for different sera", "setting": "antibodies against HCV [1]; serum 65234", "value": 177, "unit": "Absorbance Units"}, {"measurement": "Absorbance Units for different sera", "setting": "antibodies against HCV [1]; serum 65241", "value": 367, "unit": "Absorbance Units"}, {"measurement": "Absorbance Units for different sera", "setting": "antibodies against HCV [1]; serum 65276", "value": 248, "unit": "Absorbance Units"}, {"measurement": "Absorbance Units for different sera", "setting": "antibodies against HCV [1]; serum L", "value": 242, "unit": "Absorbance Units"}]}
{"substance": "LPRRGPRL (pin support) [overlapping octameric peptide of HCV core protein on pin support]", "values": [{"measurement": "Absorbance Units for different sera", "setting": "antibodies against HCV [1]; serum 65221", "value": 97, "unit": "Absorbance Units"}, {"measurement": "Absorbance Units for different sera", "setting": "antibodies against HCV [1]; serum 65234", "value": 145, "unit": "Absorbance Units"}, {"measurement": "Absorbance Units for different sera", "setting": "antibodies against HCV [1]; serum 65241", "value": 94, "unit": "Absorbance Units"}, {"measurement": "Absorbance Units for different sera", "setting": "antibodies against HCV [1]; serum 65276", "value": 139, "unit": "Absorbance Units"}, {"measurement": "Absorbance Units for different sera", "setting": "antibodies against HCV [1]; serum L", "value": 148, "unit": "Absorbance Units"}]}
{"substance": "YLLPRR [YLLPRR]", "values": [{"measurement": "Detection of the epitope by sera", "setting": "antibodies against HCV [1]; 16 sera assayed by PEPSCAN", "value": "detected to a greater or lesser extent by all of the sera tested"}, {"measurement": "Frequency of relative signal strength: All", "setting": "antibodies against HCV [2]; listed as 1-Tyrosine Y", "value": 11}, {"measurement": "Frequency of relative signal strength: All", "setting": "antibodies against HCV [2]; [3]", "value": 8}, {"measurement": "Frequency of relative signal strength: All", "setting": "antibodies against HCV [2]; [4]", "value": 3}, {"measurement": "Frequency of relative signal strength: All", "setting": "antibodies against HCV [2]; listed as 4-Proline P", "value": 5}, {"measurement": "Frequency of relative signal strength: All", "setting": "antibodies against HCV [2]; [5]", "value": 10}, {"measurement": "Frequency of relative signal strength: All", "setting": "antibodies against HCV [2]; [6]", "value": 11}, {"measurement": "Frequency of relative signal strength: 2nd-5th", "setting": "antibodies against HCV [2]; listed as 1-Tyrosine Y", "value": 3}, {"measurement": "Frequency of relative signal strength: 6th-10th", "setting": "antibodies against HCV [2]; listed as 1-Tyrosine Y", "value": 5}, {"measurement": "Frequency of relative signal strength: Below 10th", "setting": "antibodies against HCV [2]; listed as 1-Tyrosine Y", "value": 1}, {"measurement": "Frequency of relative signal strength: Highest", "setting": "antibodies against HCV [2]; listed as 1-Tyrosine Y", "value": 2}, {"measurement": "Frequency of relative signal strength: 2nd-5th", "setting": "antibodies against HCV [2]; [3]", "value": 2}, {"measurement": "Frequency of relative signal strength: 6th-10th", "setting": "antibodies against HCV [2]; [3]", "value": 3}, {"measurement": "Frequency of relative signal strength: Below 10th", "setting": "antibodies against HCV [2]; [3]", "value": 2}, {"measurement": "Frequency of relative signal strength: Highest", "setting": "antibodies against HCV [2]; [3]", "value": 1}, {"measurement": "Frequency of relative signal strength: 2nd-5th", "setting": "antibodies against HCV [2]; [4]", "value": 0}, {"measurement": "Frequency of relative signal strength: 6th-10th", "setting": "antibodies against HCV [2]; [4]", "value": 1}, {"measurement": "Frequency of relative signal strength: Below 10th", "setting": "antibodies against HCV [2]; [4]", "value": 0}, {"measurement": "Frequency of relative signal strength: Highest", "setting": "antibodies against HCV [2]; [4]", "value": 2}, {"measurement": "Frequency of relative signal strength: 2nd-5th", "setting": "antibodies against HCV [2]; listed as 4-Proline P", "value": 1}, {"measurement": "Frequency of relative signal strength: 6th-10th", "setting": "antibodies against HCV [2]; listed as 4-Proline P", "value": 1}, {"measurement": "Frequency of relative signal strength: Below 10th", "setting": "antibodies against HCV [2]; listed as 4-Proline P", "value": 0}, {"measurement": "Frequency of relative signal strength: Highest", "setting": "antibodies against HCV [2]; listed as 4-Proline P", "value": 3}, {"measurement": "Frequency of relative signal strength: 2nd-5th", "setting": "antibodies against HCV [2]; [5]", "value": 2}, {"measurement": "Frequency of relative signal strength: 6th-10th", "setting": "antibodies against HCV [2]; [5]", "value": 1}, {"measurement": "Frequency of relative signal strength: Below 10th", "setting": "antibodies against HCV [2]; [5]", "value": 7}, {"measurement": "Frequency of relative signal strength: Highest", "setting": "antibodies against HCV [2]; [5]", "value": 0}, {"measurement": "Frequency of relative signal strength: 2nd-5th", "setting": "antibodies against HCV [2]; [6]", "value": 1}, {"measurement": "Frequency of relative signal strength: 6th-10th", "setting": "antibodies against HCV [2]; [6]", "value": 5}, {"measurement": "Frequency of relative signal strength: Below 10th", "setting": "antibodies against HCV [2]; [6]", "value": 3}, {"measurement": "Frequency of relative signal strength: Highest", "setting": "antibodies against HCV [2]; [6]", "value": 2}]}
